Columns and labels:
[1] = DRUGMATRIX: Calcium Channel Type L, Dihydropyridine radioligand binding (ligand: [3H] Nitrendipine); format: cell membranes, Rattus norvegicus, Wistar, Cerebral cortex, Membrane; settings: Not Active = under 50% inhibition at 10 µM
[2] = DRUGMATRIX: Nicotinic Acetylcholine radioligand binding (ligand: [125I] Epibatidine); format: cell membranes, Membrane; settings: imr-32; Not Active = under 50% inhibition at 10 µM
[3] = DRUGMATRIX: Sigma2 radioligand binding (ligand: [3H] Ifenprodil); format: cell membranes, Rattus norvegicus, Wistar, Brain, Membrane; settings: Not Active = under 50% inhibition at 10 µM
Glucocorticoid receptor = biological target: T1, Glucocorticoid receptor (Homo sapiens, UniProt P04150); settings: hela s3; note: in other assays of this panel Not Active means under 50% inhibition at 10 µM
T1 sequence (P04150 whole entry): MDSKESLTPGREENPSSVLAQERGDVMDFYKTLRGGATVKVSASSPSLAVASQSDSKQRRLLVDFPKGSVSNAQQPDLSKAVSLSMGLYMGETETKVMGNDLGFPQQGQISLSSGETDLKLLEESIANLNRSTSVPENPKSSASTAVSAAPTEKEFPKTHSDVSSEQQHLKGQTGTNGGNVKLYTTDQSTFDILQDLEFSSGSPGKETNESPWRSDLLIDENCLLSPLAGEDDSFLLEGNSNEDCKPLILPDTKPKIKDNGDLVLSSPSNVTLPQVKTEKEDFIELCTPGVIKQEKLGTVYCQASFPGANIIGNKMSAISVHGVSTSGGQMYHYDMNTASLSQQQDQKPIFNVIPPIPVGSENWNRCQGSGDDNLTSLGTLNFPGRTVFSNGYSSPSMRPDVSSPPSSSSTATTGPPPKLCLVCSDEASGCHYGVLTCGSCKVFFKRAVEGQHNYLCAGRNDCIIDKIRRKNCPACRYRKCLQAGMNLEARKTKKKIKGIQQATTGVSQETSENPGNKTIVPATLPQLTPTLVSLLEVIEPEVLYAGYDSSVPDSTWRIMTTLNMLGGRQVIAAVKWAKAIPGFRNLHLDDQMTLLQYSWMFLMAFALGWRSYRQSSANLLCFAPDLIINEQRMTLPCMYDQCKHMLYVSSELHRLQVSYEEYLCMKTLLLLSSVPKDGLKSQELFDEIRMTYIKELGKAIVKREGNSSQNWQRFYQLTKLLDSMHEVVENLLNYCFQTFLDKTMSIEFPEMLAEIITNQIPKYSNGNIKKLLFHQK

[4] = biological target: 5-hydroxytryptamine receptor 1B (Rattus norvegicus, UniProt P28564); format: cell membranes, Wistar, Cerebral cortex, Membrane; note: in other assays of this panel Not Active means under 50% inhibition at 10 µM
Sequence of 5-hydroxytryptamine receptor 1B (P28564 whole entry): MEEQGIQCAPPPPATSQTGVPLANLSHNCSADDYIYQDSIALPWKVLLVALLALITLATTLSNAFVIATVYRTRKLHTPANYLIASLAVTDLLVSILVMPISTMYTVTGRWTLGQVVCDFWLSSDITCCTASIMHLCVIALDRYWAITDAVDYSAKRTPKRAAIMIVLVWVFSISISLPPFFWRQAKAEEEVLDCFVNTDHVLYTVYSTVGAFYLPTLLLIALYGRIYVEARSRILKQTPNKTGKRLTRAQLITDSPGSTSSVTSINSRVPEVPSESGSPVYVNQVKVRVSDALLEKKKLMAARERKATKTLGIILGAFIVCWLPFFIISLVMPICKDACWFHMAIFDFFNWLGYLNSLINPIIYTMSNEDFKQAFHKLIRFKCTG

Cytochrome P450 2A6 = biological target: T2, Cytochrome P450 2A6 (Homo sapiens, UniProt P11509); settings: bti-tn-5b1-4; note: in other assays of this panel Not Active means under 50% inhibition at 10 µM
T2 sequence (P11509 whole entry): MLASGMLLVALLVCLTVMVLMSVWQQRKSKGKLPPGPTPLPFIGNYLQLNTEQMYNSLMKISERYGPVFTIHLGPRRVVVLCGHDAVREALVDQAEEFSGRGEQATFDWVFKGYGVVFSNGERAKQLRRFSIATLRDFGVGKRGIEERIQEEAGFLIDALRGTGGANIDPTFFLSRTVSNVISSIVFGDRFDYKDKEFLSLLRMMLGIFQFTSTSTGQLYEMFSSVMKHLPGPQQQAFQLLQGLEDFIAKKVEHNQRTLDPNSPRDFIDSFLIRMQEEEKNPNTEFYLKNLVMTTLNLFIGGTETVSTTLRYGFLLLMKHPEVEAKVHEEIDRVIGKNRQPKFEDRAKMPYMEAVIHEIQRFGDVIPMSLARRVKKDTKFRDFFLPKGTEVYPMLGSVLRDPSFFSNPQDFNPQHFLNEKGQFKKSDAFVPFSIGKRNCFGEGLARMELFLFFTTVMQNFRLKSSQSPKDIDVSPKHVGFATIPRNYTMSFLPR

[5] = biological target: Protein kinase C alpha type (Homo sapiens, UniProt P17252); format: cell-based; settings: sf9;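 note: inhibition of PKCalpha kinase activity measured in an enzyme assay with histone as the phosphorylation substrate; in other assays of this panel Not Active means under 50% inhibition at 10 µM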
B2 bradykinin receptor = biological target: T3, B2 bradykinin receptor (Homo sapiens, UniProt P30411); format: cell membranes, Membrane; settings: chem-1; note: in other assays of this panel Not Active means under 50% inhibition at 10 µM
T3 sequence (P30411 whole entry): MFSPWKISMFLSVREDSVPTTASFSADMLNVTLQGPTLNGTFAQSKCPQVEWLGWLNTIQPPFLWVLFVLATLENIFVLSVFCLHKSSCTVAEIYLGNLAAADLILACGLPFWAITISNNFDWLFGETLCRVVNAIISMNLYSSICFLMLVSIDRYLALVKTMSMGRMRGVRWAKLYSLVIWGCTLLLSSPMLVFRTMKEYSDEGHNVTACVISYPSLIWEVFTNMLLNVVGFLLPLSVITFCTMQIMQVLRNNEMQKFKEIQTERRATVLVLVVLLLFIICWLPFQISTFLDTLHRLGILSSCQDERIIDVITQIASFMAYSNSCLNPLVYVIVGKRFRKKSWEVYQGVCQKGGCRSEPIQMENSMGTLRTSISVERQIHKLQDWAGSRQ

O=C(c1ccccc1C(F)(F)F)N1CCC(Cc2ccccc2)CC1
Not Active: IC50 [1] | Ki [1] | IC50 [2] | Ki [2] | IC50 [3] | Ki [3] | IC50 (Glucocorticoid receptor) | IC50 [4] | IC50 (Cytochrome P450 2A6) | Ki (Cytochrome P450 2A6) | IC50 [5] | IC50 (B2 bradykinin receptor)

O=C/C=C/c1ccccc1
Not Active: IC50 [1] | Ki [1] | IC50 [2] | Ki [2] | IC50 [3] | Ki [3] | IC50 (Glucocorticoid receptor) | IC50 [4] | IC50 (Cytochrome P450 2A6) | Ki (Cytochrome P450 2A6) | IC50 [5] | IC50 (B2 bradykinin receptor)

Nc1ccc2c3c(cccc13)C(=O)NC2=O
Not Active: IC50 [1] | Ki [1] | IC50 [2] | Ki [2] | IC50 [3] | Ki [3] | IC50 (Glucocorticoid receptor) | IC50 [4] | IC50 (Cytochrome P450 2A6) | Ki (Cytochrome P450 2A6) | IC50 [5] | IC50 (B2 bradykinin receptor)

COc1ccc(C(=O)N2CCCC2=O)cc1
Not Active: IC50 [1] | Ki [1] | IC50 [2] | Ki [2] | IC50 [3] | Ki [3] | IC50 (Glucocorticoid receptor) | IC50 [4] | IC50 (Cytochrome P450 2A6) | Ki (Cytochrome P450 2A6) | IC50 [5] | IC50 (B2 bradykinin receptor)

O=c1cnn([C@@H]2O[C@H](CO)[C@@H](O)[C@H]2O)c(=O)[nH]1 [6-AZAURIDINE]
Not Active: IC50 [1] | Ki [1] | IC50 [2] | Ki [2] | IC50 [3] | Ki [3] | IC50 (Glucocorticoid receptor) | IC50 [4] | IC50 (Cytochrome P450 2A6) | Ki (Cytochrome P450 2A6) | IC50 [5] | IC50 (B2 bradykinin receptor)

CC[C@H](C)[C@H]1O[C@]2(C=C[C@@H]1C)C[C@@H]1C[C@@H](C/C=C(\C)[C@@H](O[C@H]3C[C@H](OC)[C@@H](O[C@H]4C[C@H](OC)[C@@H](O)[C@H](C)O4)[C@H](C)O3)[C@@H](C)/C=C/C=C3\CO[C@@H]4[C@H](O)C(C)=C[C@@H](C(=O)O1)[C@]34O)O2.CO[C@H]1C[C@H](O[C@H]2[C@H](C)O[C@@H](O[C@@H]3/C(C)=C/C[C@@H]4C[C@@H](C[C@]5(C=C[C@H](C)[C@@H](C(C)C)O5)O4)OC(=O)[C@@H]4C=C(C)[C@@H](O)[C@H]5OC/C(=C\C=C\[C@@H]3C)[C@]54O)C[C@@H]2OC)O[C@@H](C)[C@@H]1O [ABAMECTIN]
Not Active: IC50 [1] | Ki [1] | IC50 [2] | Ki [2] | IC50 [3] | Ki [3] | IC50 (Glucocorticoid receptor) | IC50 [4] | IC50 (Cytochrome P450 2A6) | Ki (Cytochrome P450 2A6) | IC50 [5] | IC50 (B2 bradykinin receptor)

NCCCC(O)(P(=O)(O)O)P(=O)(O)O [ALENDRONIC ACID]
Not Active: IC50 [1] | Ki [1] | IC50 [2] | Ki [2] | IC50 [3] | Ki [3] | IC50 (Glucocorticoid receptor) | IC50 [4] | IC50 (Cytochrome P450 2A6) | Ki (Cytochrome P450 2A6) | IC50 [5] | IC50 (B2 bradykinin receptor)

Cc1nnc2n1-c1ccc(Cl)cc1C(c1ccccc1)=NC2 [ALPRAZOLAM]
Not Active: IC50 [1] | Ki [1] | IC50 [2] | Ki [2] | IC50 [3] | Ki [3] | IC50 (Glucocorticoid receptor) | IC50 [4] | IC50 (Cytochrome P450 2A6) | Ki (Cytochrome P450 2A6) | Ki [5] | IC50 (B2 bradykinin receptor)

CC1(C)S[C@@H]2[C@H](NC(=O)[C@H](N)c3ccccc3)C(=O)N2[C@H]1C(=O)O [AMPICILLIN]
Not Active: IC50 [1] | Ki [1] | IC50 [2] | Ki [2] | IC50 [3] | Ki [3] | IC50 (Glucocorticoid receptor) | IC50 [4] | IC50 (Cytochrome P450 2A6) | Ki (Cytochrome P450 2A6) | IC50 [5] | IC50 (B2 bradykinin receptor)

COc1ccc2c3c1O[C@H]1C[C@@H](O)C=C[C@@]31CCN(C)C2 [GALANTAMINE]
Not Active: IC50 [1] | Ki [1] | IC50 [2] | Ki [2] | IC50 [3] | Ki [3] | IC50 (Glucocorticoid receptor) | IC50 [4] | IC50 [5] | IC50 (B2 bradykinin receptor)

CC(C)=CCC/C(C)=C/CO [GERANIOL]
Not Active: IC50 [1] | Ki [1] | IC50 [2] | Ki [2] | IC50 [3] | Ki [3] | IC50 (Glucocorticoid receptor) | IC50 [4] | IC50 [5] | IC50 (B2 bradykinin receptor)

CC(C)NCC(O)COc1cccc2[nH]ccc12 (centres undefined) [PINDOLOL]
Not Active: IC50 [1] | Ki [1] | IC50 [2] | Ki [2] | IC50 [3] | Ki [3] | IC50 (Glucocorticoid receptor) | IC50 [4] | IC50 [5] | IC50 (B2 bradykinin receptor)

CCCNCC(O)COc1ccccc1C(=O)CCc1ccccc1 (centres undefined) [PROPAFENONE]
Not Active: IC50 [1] | Ki [1] | IC50 [2] | Ki [2] | IC50 [3] | Ki [3] | IC50 [4] | IC50 (Cytochrome P450 2A6) | Ki (Cytochrome P450 2A6) | IC50 [5] | IC50 (B2 bradykinin receptor)
